Test results published in patent publication US5545738A, “Alfuzosin hydrochloride dihydrate” (Synthelabo, priority 1993, dated 1996).
Where a name gives a salt, the structure may show the parent alone. Values belong to the compound of their own block, whether it stands above or below them.

Columns and labels:
[1] = test system: α1 -adrenergic receptor; conditions: cited from earlier work
[2] = Accelerated Test (100 °C and 120 °C, X-ray powder diffraction); format: physicochemical; conditions: 45 min.
[3] = Test on Stability to Heating, Humidifying and Light; format: physicochemical; conditions: for stability, overall: conditions of table 1; for moisture content of crystal form: initial, before test
Method: The stability test was carried out following the procedures described below.
A 0.3 g-portion of each of the anhydrous form and respective hydrates of alfuzosin hydrochloride in crystal forms was placed in a glass bottle (sealed) and in a desiccator filled with a NaCl saturated solution, and preserved at 70° C. with a heater (Toyama Industry), after which the physicochemical stability of each compound was evaluated by X-ray powder diffraction and high performance liquid chromatography (HPLC).
Separately, 0.3 g of each of the anhydrous form and respective hydrates of alfuzosin hydrochloride in crystal forms was placed in a plastic dish which was then covered with a polyvinylidene chloride film, followed by irradiation with a chemical lamp (dominant wavelength: 365 nm) for 24 hours, for the evaluation of the light stability in the same manner as in the above.
HPLC apparatus (manufactured by Shimazu)
Detection with UV (at 254 nm); column (Nucleosil 5C18, 150 mm×4 mm, M, Nagel; flow rate 1.0 ml/m; room temperature; eluent, NaClO4 (in 1000 ml of water, 7 g, pH 3.5)- acetonitrile-THF (155:55:45): internal standard, p-chloroacetanilide (0.5 mg/ml).

[4] = Drying Test (moisture content and crystal state under drying conditions); format: physicochemical; conditions: for loss of water: 1 day
Method: The moisture content was measured with Karl Fischer Aquameter (Kyoto Electron Industry, MK-AII) for about 100 mg of a sample dissolved in methanol for moisture measurement. In turn, the dehydration behavior of the crystal water was measured by thermogravimetry and differential thermal analysis using TG/DTA200 thermogravimetric apparatus and SSC5030 Disc Station (Seiko). Concretely, approximately 5 mg of a sample was weighed into an open aluminum pan and analyzed at a rate of temperature increase of 10° C./m or 1° C./m. This analysis was carried out in a nitrogen atmosphere (flow rate: 100 ml/m).
Different from the hygroscopicity test mentioned above, the various hydrates of alfuzosin hydrochloride were kept under drying conditions for the monitoring of the change in moisture content.
In this connection, simultaneously in the present test, also the crystal state of dried samples after a three-days' drying was investigated for the dihydrate of the present invention by X-ray powder diffraction under drying conditions, for comparison with patterns of X-ray powder diffraction under normal conditions.

[5] = Accelerated Test (100 °C and 120 °C, X-ray powder diffraction); format: physicochemical; conditions: for crystal form change: 2 hours
Method: A 0.3 g-portion of each of the hydrates of alfuzosin hydrochloride was preserved in heaters (Sanyo) set to 100° C. and 120° C., for the confirmation of the stability of the respective hydrates. The physical stability of the respective samples was confirmed by X-ray powder diffraction.
In this test, the crystal state of the respective hydrates was monitored by X-ray powder diffraction every 30 minutes for 2 hours.

[6] = Hygroscopicity Test (25 °C, various relative humidities, 10 days); format: physicochemical
Method: A 0.2 g-portion of a sample of each of the anhydrous form and respective hydrates of alfuzosin hydrochloride was placed in a desiccator containing a saturated solution of the salts listed hereunder (at 25° C.), and the relationship between the relative humidity at which the hydrated states of the respective compounds become. stable physically and the hygroscopicity of polymorphic hydrated forms of those compounds was investigated. The respective samples were brought to equilibrium by storage for 10 days under the respective conditions. For the setting up of the relative humidity (RH: %) was used a saturated solution of salts listed below:
RH 0%, dry P2 O5; RH 11%, LiCl; RH 22%, CH3 COOK; RH 33%, MgCl2; RH 43%, K2 CO3.2H2 O; RH 53%, Mg(NO3)2; RH 64%, CoCl2.6H2 O; RH 75%, NaCl; RH 84%, KCl; RH 93%, KNO3; RH 100%, water.

[7] = overall stability of crystal forms (tests 1-4); format: physicochemical; conditions: normal preservation (25° C., RH 40-80%) and heating (50°-60° C.); Hydrochloride Dihydrate
[8] = Chemical lamp (365 nm), 24 hours
[9] = after 70° C., 9 days at RH 75%, hydrochloride
[10] = after 70° C., 9 days, hydrochloride
[11] = after chemical lamp (365 nm), 24 hours, hydrochloride

Compound: COc1cc2nc(N(C)CCCNC(=O)C3CCCO3)nc(N)c2cc1OC (centres unmarked) [alfuzosin hydrochloride]
- α1 -adrenergic receptor antagonism [1]: antagonist of α1 -adrenergic receptor

Compound: COc1cc2nc(N(C)CCCNC(=O)C3CCCO3)nc(N)c2cc1OC (centres unmarked) [Tetrahydrate (TETRA), alfuzosin hydrochloride tetrahydrate]
- crystal form change [2]: changed into the dihydrate
- DI content ([3]; 70° C., 9 days): 26%
- TETRA content ([3]; 70° C., 9 days): 74%
- DI content ([3]; 70° C., 9 days at RH 75%): 98%
- TETRA content ([3]; 70° C., 9 days at RH 75%): 2%
- moisture content ([3]; after 70° C., 9 days): 13.19%
- moisture content ([3]; after 70° C., 9 days at RH 75%): 8.25%
- moisture content ([3]; after chemical lamp (365 nm), 24 hours): 15.18%
- stability, overall [3]: changed partially into the dihydrate, so they are considered unstable
- moisture content of crystal form [3]: 14.93%
- loss of water ([4]; drying conditions): lost most of the water in 1 day
- crystal form ([5]; 100° C., 30 min.): TETRA + DI
- crystal form change ([5]; 100° C.): changed into the dihydrate by degrees

The next lines start with results.

- relative humidity at which stable ([6]; 25° C., 10 days): ≤ 75%
- equilibrium moisture content ([6]; RH over 75%, 25° C.): 12%
- moisture content change at RH over 75% ([6]; RH over 75%, 25° C.): increased significantly
- moisture content, equivalent moles of water ([6]; equilibrium, RH over 75%, 25° C.): 3 moles of water
- stability ([3]; 70° C., 9 days): Stable
- stability ([3]; 70° C., 9 days at RH 75%): Stable
- stability [3, 8]: Stable
- moisture content [3, 9]: 0.7%
- moisture content [3, 10]: 1.33%
- moisture content [3, 11]: 0.66%
- stability, overall ([3]; listed as anhydrous form, hydrochloride): extremely stable
- moisture content of crystal form ([3]; hydrochloride): 0.1%
Compound: COc1cc2nc(N(C)CCCNC(=O)C3CCCO3)nc(N)c2cc1OC (centres unmarked) [Anhydrous, anhydrous alfuzosin hydrochloride]
- crystal form change on preservation ([6]; relative humidity exceeding 75%): the crystal structure of the anhydrous formchanges, thereby providing a trihydrate

- crystal form ([2]; hydrochloride): AN + DI + TRI
- TRI content ([3]; 70° C., 9 days): 68%
- TRI content ([3]; 70° C., 9 days at RH 75%): 84%
- DI content ([3]; 70° C., 9 days at RH 75%, hydrochloride): 16%
- DI content ([3]; 70° C., 9 days, hydrochloride): 37%
- stability [3, 8]: Stable
- moisture content [3, 9]: 12.03%
- moisture content [3, 10]: 11.05%
- moisture content [3, 11]: 12.87%
- moisture content of crystal form ([3]; hydrochloride): 12.75%
- loss of water ([4]; drying conditions): lost most of the water in 1 day
- crystal form ([5]; 100° C., 30 min., hydrochloride): TRI
- crystal form ([5]; 100° C., 60 min., hydrochloride): TRI + DI
- crystal form ([5]; 100° C., 90 min., hydrochloride): TRI + DI
- crystal form ([5]; 100° C., 120 min., hydrochloride): TRI + DI
- crystal form change ([5]; 100° C.): changed into the dihydrate by degrees
Compound: COc1cc2nc(N(C)CCCNC(=O)C3CCCO3)nc(N)c2cc1OC (centres unmarked) [Trihydrate (TRI), trihydrate of alfuzosin hydrochloride]
- crystal form change ([2]; hydrochloride): changed into a mixture of the anhydrous form, dihydrate and trihydrate
- stability, overall ([3]; hydrochloride): changed partially into the dihydrate, so they are considered unstable

- relative stability among crystal forms [7]: the stablest crystal form
- stability ([3]; 70° C., 9 days): Stable
- stability ([3]; 70° C., 9 days at RH 75%): Stable
- stability [3, 8]: Stable
- moisture content ([3]; after 70° C., 9 days at RH 75%, Hydrochloride Dihydrate): 8.48%
- moisture content ([3]; after 70° C., 9 days, Hydrochloride Dihydrate): 8.41%
- moisture content ([3]; after chemical lamp (365 nm), 24 hours, Hydrochloride Dihydrate): 8.40%
- stability, overall ([3]; Hydrochloride Dihydrate): extremely stable
- moisture content of crystal form ([3]; Hydrochloride Dihydrate): 8.14%
- dehydration process ([4]; drying conditions): goes very slowly
- time stable ([5]; 100° C.): ≥ 2 h
- time stable ([5]; 120° C.): ≥ 0.75 h
Compound: COc1cc2nc(N(C)CCCNC(=O)C3CCCO3)nc(N)c2cc1OC (centres unmarked) [Dihydrate (DI), Alfuzosin Hydrochloride Dihydrate]
- change in moisture content ([4]; drying conditions, 3 days): no significant change in moisture content
- crystal form after drying ([4]; three-days' drying, X-ray powder diffraction): retains its original crystal form, with some drop in degree of crystallization
